Laboratory results: patent publication US20250154134A1, “COMPOUND AS FAK INHIBITOR AND USE THEREOF” (WIGEN BIOMEDICINE TECHNOLOGY (SHANGHAI) CO., LTD., priority 2022, published 2025)

Legend:
[1] = biological target: FAK recombinant protein (Homo sapiens (Human), UniProt Q05397); experiment: Inhibitory activity against FAK enzyme (HTRF, TK substrate); format: biochemical
Description: A compound serially diluted with DMSO was mixed with a FAK recombinant protein. After the mixture was left to stand at room temperature for 10 min, a biotin-labeled TK substrate (TK) and ATP were added. […] The inhibition percentage and IC50 of the compound were calculated compared to the DMSO control group.

[2] = test system: PC3 cells; experiment: PC3 cell proliferation, 2D activity assay (Cell Titer-Lumi, 72 h); format: cell-based, human; settings: Homo sapiens, PC-3, read-out: 2D inhibitory activity against PC3 cells IC50
Description: (§1) 2D activity assay: 1200 PC3 cells were seeded in a 96-well plate. After overnight adherence culture, A compound serially diluted was added. […] The growth of the cells was evaluated, and the IC50 of the compound inhibiting cell growth was calculated. 3D activity assay: PC3 cells were seeded in a 96-well plate at 1200 cells/well, and 3D culture was performed. 14 days after a compound serially diluted was added, the growth of the cells was measured. The inhibition percentage and IC50 of the compound were calculated compared to the DMSO control group.

[3] = test system: PC3 cells; experiment: PC3 cell proliferation, 3D activity assay (3D culture, 14 days); format: cell-based, human; settings: Homo sapiens, PC-3, 336 h, read-out: 3D inhibitory activity against PC3 cells IC50
Description: as §1

FAK recombinant protein, sequence (Q05397 whole entry): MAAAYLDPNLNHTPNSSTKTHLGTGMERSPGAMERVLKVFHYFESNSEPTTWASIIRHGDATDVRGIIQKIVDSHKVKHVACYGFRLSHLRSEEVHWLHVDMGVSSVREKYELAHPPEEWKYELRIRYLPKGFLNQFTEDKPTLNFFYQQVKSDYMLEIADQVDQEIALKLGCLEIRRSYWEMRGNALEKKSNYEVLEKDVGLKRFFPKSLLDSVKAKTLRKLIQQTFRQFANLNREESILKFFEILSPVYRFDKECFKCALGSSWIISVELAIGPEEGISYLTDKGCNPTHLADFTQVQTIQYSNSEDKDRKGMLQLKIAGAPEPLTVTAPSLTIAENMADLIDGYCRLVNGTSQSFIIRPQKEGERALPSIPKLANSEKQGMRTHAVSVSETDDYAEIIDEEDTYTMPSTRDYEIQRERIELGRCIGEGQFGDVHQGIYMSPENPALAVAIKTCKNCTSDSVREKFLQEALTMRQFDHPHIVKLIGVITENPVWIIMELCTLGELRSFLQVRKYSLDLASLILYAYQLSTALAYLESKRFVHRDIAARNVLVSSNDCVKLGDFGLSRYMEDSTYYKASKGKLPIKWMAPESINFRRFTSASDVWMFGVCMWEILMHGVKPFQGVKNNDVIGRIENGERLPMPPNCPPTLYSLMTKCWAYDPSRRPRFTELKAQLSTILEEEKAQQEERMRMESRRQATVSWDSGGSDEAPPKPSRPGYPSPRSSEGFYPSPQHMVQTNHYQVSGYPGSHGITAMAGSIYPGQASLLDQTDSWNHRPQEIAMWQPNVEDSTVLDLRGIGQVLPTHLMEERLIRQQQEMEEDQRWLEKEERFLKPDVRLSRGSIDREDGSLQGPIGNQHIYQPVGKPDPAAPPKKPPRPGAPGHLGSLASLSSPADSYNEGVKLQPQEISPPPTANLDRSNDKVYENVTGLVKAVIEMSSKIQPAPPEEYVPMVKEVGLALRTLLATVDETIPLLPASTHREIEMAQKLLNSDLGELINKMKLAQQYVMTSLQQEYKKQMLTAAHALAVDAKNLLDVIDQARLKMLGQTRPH

| Compound | IC50 [1] [nM] | IC50 [2] [nM] | IC50 [3] [nM] |
| --- | --- | --- | --- |
| COc1cc2c(cc1Nc1ncc(C(F)(F)F)c(Oc3cccc4c3C(=O)N(C)C43CC3)n1)CN(C)C(=O)C2 [Compound 90] | < 20 | > 2000 | 5 to 50 |
| CN1C(=O)c2c(Oc3nc(Nc4cc5n(n4)CCOC5)ncc3C(F)(F)F)cccc2C12CC2 [Compound 94] | < 20 | > 2000 | < 5 |
| CN1CCn2nc(Nc3ncc(C(F)(F)F)c(Oc4cccc5c4C(=O)N(C)C54CC4)n3)cc2C1 [Compound 96] | < 20 | > 2000 | < 5 |
| COc1cc(C(=O)NC2CC3(CCN(C)CC3)C2)c(F)cc1Nc1ncc(C(F)(F)F)c(Cc2cccc3c2C(=O)N(C)C32CC2)n1 [Compound 102] | < 20 | > 2000 | 5 to 50 |
| COc1cc(C(=O)NC2CCC3(CC2)CN(C)C3)ccc1Nc1ncc(C(F)(F)F)c(Cc2cccc3c2C(=O)N(C)C32CC2)n1 [Compound 103] | < 20 | > 2000 | 5 to 50 |
| COc1cc(C(=O)NC2COC3(CCN(C)C3)C2)ccc1Nc1ncc(C(F)(F)F)c(Cc2cccc3c2C(=O)N(C)C32CC2)n1 (stereo not drawn) [Compound 105] | < 20 | > 2000 | 5 to 50 |
| COc1cc(C(=O)NC2CCC3(CC2)CCN(C)C3)ccc1Nc1ncc(C(F)(F)F)c(Cc2cccc3c2C(=O)N(C)C32CC2)n1 (stereo not drawn) [Compound 106] | < 20 | > 2000 | 5 to 50 |
| COc1cc(C(=O)NC2CCC3(CC2)CCN(C)CC3)ccc1Nc1ncc(C(F)(F)F)c(Cc2cccc3c2C(=O)N(C)C32CC2)n1 [Compound 107] | < 20 | > 2000 | > 50 |
| COc1cc(C(=O)NC2CCC23CCN(C)CC3)ccc1Nc1ncc(C(F)(F)F)c(Cc2cccc3c2C(=O)N(C)C32CC2)n1 (stereo not drawn) [Compound 108] | < 20 | > 2000 | 5 to 50 |
| COc1cc(C(=O)NC2CCC3(CC2)CCN3C)ccc1Nc1ncc(C(F)(F)F)c(Cc2cccc3c2C(=O)N(C)C32CC2)n1 (stereo not drawn) [Compound 109] | < 20 | > 2000 | 5 to 50 |
| COc1cc(C(=O)NC2CCN3CCN(C)C3C2)ccc1Nc1ncc(C(F)(F)F)c(Cc2cccc3c2C(=O)N(C)C32CC2)n1 (stereo not drawn) [Compound 110] | < 20 | > 2000 | > 50 |
| COc1cc(N2CCN(C)CC2)ccc1Nc1ncc(C(F)(F)F)c(Cc2cccc3c2C(=O)N(C)C32CC2)n1 [Compound 111] | < 20 | > 2000 | 5 to 50 |
| COc1cc(N2CCOCC2)ccc1Nc1ncc(C(F)(F)F)c(Cc2cccc3c2C(=O)N(C)C32CC2)n1 [Compound 112] | < 20 | > 2000 | 5 to 50 |
| COc1cc(C(=O)NC2CCN(C)CC2)ccc1Nc1ncc(Br)c(Oc2cccc3c2C(=O)N(C)C32CC2)n1 [Compound 116] | < 20 | > 2000 | 5 to 50 |
| COc1cc(N2CCC3(CC2)CN(C)C3)c(F)cc1Nc1ncc(C(F)(F)F)c(Oc2cccc3c2C(=O)N(C)C32CC2)n1 [Compound 126] | < 20 | > 2000 | < 5 |
| COc1cc(N2CCC(N(C)C)CC2)c(F)cc1Nc1ncc(C(F)(F)F)c(Oc2cccc3c2C(=O)N(C)C32CC2)n1 [Compound 128] | < 20 | > 2000 | < 5 |

Now from value to compound:

| IC50 [1] [nM] | IC50 [2] [nM] | IC50 [3] [nM] | Compound |
| --- | --- | --- | --- |
| < 20 | > 2000 | 5 to 50 | Cc1c(Nc2ncc(C(F)(F)F)c(Oc3cccc4c3C(=O)N(C)C43CC3)n2)nn2c1CCC2 [Compound 93] |
| < 20 | > 2000 | 5 to 50 | CN1C(=O)c2c(Oc3nc(Nc4cnn5c4COCC5)ncc3C(F)(F)F)cccc2C12CC2 [Compound 95] |
| < 20 | > 2000 | 5 to 50 | CN1CCC(n2ccc(Nc3ncc(C(F)(F)F)c(Oc4cccc5c4C(=O)N(C)C54CC4)n3)n2)CC1 [Compound 97] |
| < 20 | > 2000 | 5 to 50 | Cc1cn(C2CCN(C)CC2)nc1Nc1ncc(C(F)(F)F)c(Oc2cccc3c2C(=O)N(C)C32CC2)n1 [Compound 98] |
| < 20 | > 2000 | 5 to 50 | COc1cc(C(=O)NC2CCN(C)CC2)ccc1Nc1ncc(C(F)(F)F)c(Cc2cccc3c2C(=O)N(C)C32CC2)n1 [Compound 99, 3-methoxy-4-((4-((2′-methyl-3′-oxospiro[cyclopropane-1,1′-isoindolin]-4′-yl)methyl)-5-(trifluoromethyl)pyrimidin-2-yl)amino)-N-(1-methylpiperidin-4-yl)benzamide] |
| < 20 | > 2000 | 5 to 50 | COc1cc(C(=O)NC2CCN(C)CC2)c(F)cc1Nc1ncc(C(F)(F)F)c(Cc2cccc3c2C(=O)N(C)C32CC2)n1 [Compound 100, 2-fluoro-5-methoxy-4-((4-((2′-methyl-3′-oxospiro[cyclopropane-1,1′-isoindolin]-4′-yl)methyl)-5-(trifluoromethyl)pyrimidin-2-yl)amino)-N-(1-methylpiperidin-4-yl)benzamide] |
| < 20 | > 2000 | 5 to 50 | COc1cc(C(=O)NC2CC3(CCN(C)CC3)C2)ccc1Nc1ncc(C(F)(F)F)c(Cc2cccc3c2C(=O)N(C)C32CC2)n1 [Compound 101, 3-methoxy-4-((4-((2′-methyl-3′-oxospiro[cyclopropane-1,1′-isoindolin]-4′-yl)methyl)-5-(trifluoromethyl)pyrimidin-2-yl)amino)-N-(7-methyl-7-azaspiro[3.5]nonan-2-yl)benzamide] |
| < 20 | > 2000 | 5 to 50 | COc1cc(C(=O)NC2CCC3(CCN(C)C3)C2)ccc1Nc1ncc(C(F)(F)F)c(Cc2cccc3c2C(=O)N(C)C32CC2)n1 (stereo not drawn) [Compound 104] |
| < 20 | > 2000 | 5 to 50 | COc1cc(N2CCC(N3CCN(C)CC3)CC2)ccc1Nc1ncc(C(F)(F)F)c(Cc2cccc3c2C(=O)N(C)C32CC2)n1 [Compound 113] |
| < 20 | > 2000 | > 50 | COc1cc(C(=O)NC2CCN(C)CC2)ccc1Nc1ncc(C)c(Oc2cccc3c2C(=O)N(C)C32CC2)n1 [Compound 115] |
| < 20 | > 2000 | < 5 | COc1cc(C2CCN(C)CC2)c(F)cc1Nc1ncc(C(F)(F)F)c(Oc2cccc3c2C(=O)N(C)C32CC2)n1 [Compound 119, 4′-((2-((5-fluoro-2-methoxy-4-(1-methylpiperidin-4-yl)phenyl)amino)-5-(trifluoromethyl)pyrimidin-4-yl)oxy)-2′-methylspiro[cyclopropane-1,1′-isoindolin]-3′-one] |
| < 20 | > 2000 | < 5 | COc1cc(N2CCN(C)CC2)c(F)cc1Nc1ncc(C(F)(F)F)c(Oc2cccc3c2C(=O)N(C)C32CC2)n1 [Compound 122] |
| < 20 | > 2000 | < 5 | COCCN1CCN(c2cc(OC)c(Nc3ncc(C(F)(F)F)c(Oc4cccc5c4C(=O)N(C)C54CC4)n3)cc2F)CC1 [Compound 123] |
| < 20 | > 2000 | < 5 | COc1cc(N2CCN(CC(=O)N(C)C)CC2)c(F)cc1Nc1ncc(C(F)(F)F)c(Oc2cccc3c2C(=O)N(C)C32CC2)n1 [Compound 124] |
| < 20 | > 2000 | < 5 | COc1cc(N2CC3(CN(C)C3)C2)c(F)cc1Nc1ncc(C(F)(F)F)c(Oc2cccc3c2C(=O)N(C)C32CC2)n1 [Compound 125] |
| < 20 | > 2000 | < 5 | COc1cc(N2CCC3(CCN(C)C3)C2)c(F)cc1Nc1ncc(C(F)(F)F)c(Oc2cccc3c2C(=O)N(C)C32CC2)n1 (stereo not drawn) [Compound 127] |
| < 20 | > 2000 | 5 to 50 | COc1cc(N2CCN(C)CC2=O)c(F)cc1Nc1ncc(C(F)(F)F)c(Oc2cccc3c2C(=O)N(C)C32CC2)n1 [Compound 129] |
| < 20 | > 2000 | 5 to 50 | COc1cc(N2CCN(C)CC2)ccc1Nc1ncc(C2CC2)c(Oc2cccc3c2C(=O)N(C)C32CC2)n1 [Compound 130, 4′-((5-cyclopropyl-2-((2-methoxy-4-(4-methylpiperazin-1-yl)phenyl)amino)pyrimidin-4-yl)oxy)-2′-methylspiro[cyclopropane-1,1′-isoindolin]-3′-one] |
| < 20 | > 2000 | 5 to 50 | COc1cc(N2CC3(CCN(C)CC3)C2)ccc1Nc1ncc(C2CC2)c(Oc2cccc3c2C(=O)N(C)C32CC2)n1 [Compound 131, 4′-((5-cyclopropyl-2-((2-methoxy-4-(7-methyl-2,7-diazaspiro[3.5]nonan-2-yl)phenyl)amino)pyrimidin-4-yl)oxy)-2′-methylspiro[cyclopropane-1,1′-isoindolin]-3′-one] |
| < 20 | > 2000 | 5 to 50 | COc1cc(C(=O)NC2CC3(CCN(C)CC3)C2)c(F)cc1Nc1ncc(Cl)c(Oc2cccc3c2C(=O)N(C)C32CC2)n1 [Compound 132, 4-((5-chloro-4-((2′-methyl-3′-oxospiro[cyclopropane-1,1′-isoindolin]-4′-yl)oxy)pyrimidin-2-yl)amino)-2-fluoro-5-methoxy-N-(7-methyl-7-azaspiro[3.5]nonan-2-yl)benzamide] |
